These results are taken from US5767096A, “Bromotiacumicin compounds” (Abbott Laboratories, priority 1996, dated 1998).

In brackets after ≈: the same amount, converted by molar mass. Where two headings read alike, the source gives them in different places.

What all share (format): cell-based
In test [1] the test system is Enterococcus faecium ATCC 8043. Nature of the test: In vitro antibiotic activity (MIC), agar dilution, brain heart infusion agar. The settings on record: ~10^4 organisms per spot, 37° C., ~20 hours. The procedure:
(§1) Optical rotations were measured on a Perkin-Elmer Model 241 polarimeter in a 10 cm cell. Fast atom bombardment mass spectra were measured on a Kratos MS-50 mass spectrometer. Ultraviolet spectra were recorded on a Perkin-Elmer Lambda 3B UV-visible spectrophotometer and infrared spectra on a Nicolet model 60SX FT-IR attached to a Nicolet computer. NMR spectra were acquired on either a General Electric GN500 or GN300 spectrometer. […] Rf values reported were acquired on Analtech TLC plates developed with chloroform:methanol (9:1, v:v) and were visualized using ceric sulfate spray reagent. Melting points were determined on a Hoover Unimelt and are reported uncorrected. Minimal inhibitory concentrations were determined by twofold agar dilution. Brain heart infusion agar was used for aerobes and Wilkins-Chalgren agar for anaerobes.
(§2) For primary screening of compounds of the invention against selected aerobic microorganisms, minimal inhibitory concentrations (MICs) were determined by the following agar dilution method: Series of two-fold dilutions of the test compounds were added to brain heart infusion agar. The agar plates were inoculated with approximately 10^4 organisms per spot of each of the organisms to be tested. These inoculated agar plates were then incubated at 37° C. for approximately 20 hours. The MICs were determined as the minimal concentration of test compound (in […]) that inhibited visible growth.
In general terms: Agar dilution tests growth on a series of plates holding different concentrations.

Test [2] relates to Escherichia coli JUHL. The test is described as above. Conditions: ~10^4 organisms per spot, 37° C., ~20 hours. The procedure: as §1, §2
The subject of test [3] is Staphylococcus aureus ATCC 6538P. The test is described as above. The settings on record: ~10^4 organisms per spot, 37° C., ~20 hours. The procedure:
as §1, §2

The test system of test [4] is Staphylococcus epidermidis 3519. The description is as above. Conditions: ~10^4 organisms per spot, 37° C., ~20 hours. The method, then: as §1, §2
Test [5] relates to Streptococcus pyogenes EES61. The test is described as above. The settings on record: ~10^4 organisms per spot, 37° C., ~20 hours. The method, then:
as §1, §2

In test [6] the test system is Clostridium difficile 2532. In words: In vitro antibiotic activity (MIC) against anaerobes, agar dilution, Wilkins-Chalgren agar. The settings on record: anaerobe, ~10^5 organisms per spot, 37° C., ~48 hours. The method, then:
as §1
(§3) For primary screening of compounds of the invention against anaerobic bacteria such as Clostridium, minimal inhibitory concentrations (MICs) were determined by the following agar dilution method: Series of two-fold dilutions of the test compounds were added to Wilkins-Chalgren agar. The agar plates were inoculated with approximately 10^5 organisms per spot of each of the organisms to be tested. The inoculated agar plates were then incubated at 37° C. for approximately 48 hours. The MICs were determined as the minimal concentration of test compound (in […]) that inhibited visible growth.

Test [7] has as its system Clostridium difficile ATCC 17857. The test is described as above. The settings on record: anaerobe, ~10^5 organisms per spot, 37° C., ~48 hours. The method, then: as §1, §3
Test [8] concerns Clostridium difficile ATCC 9689. The description is as above. Conditions: anaerobe, ~10^5 organisms per spot, 37° C., ~48 hours. The procedure:
as §1, §3

Test [9] concerns Clostridium perfringes ATCC 13124. In words: microbe, parasite or virus in culture. Conditions: anaerobe, ~10^5 organisms per spot, 37° C., ~48 hours. The method, then:
as §1, with “Fast” for “Optical rotations were measured on a Perkin-Elmer Model 241 polarimeter in a 10 cm cell. Fast”
as §3

In test [10] the test system is Bacteriodes thetaiotaomicron ATCC 29741. In words: In vitro antibiotic activity (MIC) against anaerobes, agar dilution, Wilkins-Chalgren agar. Conditions: anaerobe, ~10^5 organisms per spot, 37° C., ~48 hours. The procedure:
as §1, §3

The subject of test [11] is Bacteroides fragilis ATCC 25285. Described as above. Conditions: ATCC25285, anaerobe, ~10^5 organisms per spot, 37° C., ~48 hours. The procedure: as §1, §3
Test [12] has as its system bacterial pathogens. Nature of the test: In vitro activity against bacterial pathogens (summary in words). Conditions: from Table 2. The procedure: Optical rotations were measured on a Perkin-Elmer Model 241 polarimeter in a 10 cm cell. Fast atom bombardment mass spectra were measured on a Kratos MS-50 mass spectrometer. Ultraviolet spectra were recorded on a Perkin-Elmer Lambda 3B UV-visible spectrophotometer and infrared spectra on a Nicolet model 60SX FT-IR attached to a Nicolet computer. NMR spectra were acquired on either a General Electric GN500 or GN300 spectrometer. NMR spectral data are reported in Table 1 (following Example 6 below). Rf values reported were acquired on Analtech TLC plates developed with chloroform:methanol (9:1, v:v) and were visualized using ceric sulfate spray reagent. Melting points were determined on a Hoover Unimelt and are reported uncorrected. Minimal inhibitory concentrations were determined by twofold agar dilution. Brain heart infusion agar was used for aerobes and Wilkins-Chalgren agar for anaerobes.
For primary screening of compounds of the invention against selected aerobic microorganisms, minimal inhibitory concentrations (MICs) were determined by the following agar dilution method: Series of two-fold dilutions of the test compounds were added to brain heart infusion agar. […] The MICs were determined as the minimal concentration of test compound (in […]) that inhibited visible growth. […]

The mark [13] stands for this setting: Enterococcus faecium, ATCC8043, read-out: MIC.
[14] abbreviates: Escherichia coli, read-out: MIC.
The mark [15] stands for this setting: Staphylococcus aureus, ATCC6538P, read-out: MIC.
[16] abbreviates: Staphylococcus epidermidis, 3519, read-out: MIC.
Where [17] appears, read: Streptococcus pyogenes, EES61, read-out: MIC.
The mark [18] stands for this setting: Clostridioides difficile, 2532, read-out: MIC.
Setting [19] is: Clostridioides difficile, ATCC17857, read-out: MIC.
Setting [20] is: Clostridioides difficile, ATCC9689, read-out: MIC.
Where [21] appears, read: Clostridium, ATCC13124, read-out: MIC.

For “4'",6'"-didechloro-4'"-bromotiacumicin B [Ex. 5]”, the MIC in test [1] is 12.5 µg/mL; in test [2], above 200 µg/mL; in [3], 6.2 µg/mL; in [4] it was 12.5 µg/mL; in test [5] it was 25 µg/mL; in test [6], 0.5 µg/mL. In addition, the MIC in test [7] is 0.25 µg/mL; in [8], 0.12 µg/mL; in test [9], “<= 0.06 μg/mL”.
Turning to “4'",6'"-didechloro-4'"-bromotiacumicin C [Ex. 6]”, the MIC in test [1] was 25 µg/mL; in test [2] it was above 200 µg/mL; in [3], 50 µg/mL; in test [4], 50 µg/mL; in test [5] it was 50 µg/mL; in test [6], 2 µg/mL. Also, the MIC in test [7] is 1 µg/mL; in [8] it was 0.5 µg/mL; in test [9] it was 0.06 µg/mL.
Take `CCc1c(Br)c(O)c(Cl)c(O)c1C(=O)O[C@H]1[C@H](O)[C@H](OC)[C@H](OC/C2=C\C=C\C[C@H](O)/C(C)=C/[C@H](CC)[C@@H](O[C@@H]3OC(C)(C)[C@@H](OC(=O)C(C)C)[C@H](O)[C@@H]3O)/C(C)=C/C(C)=C/C[C@@H]([C@@H](C)O)OC2=O)O[C@@H]1C` [Ex. 3, 6'"-dechloro-6'"-bromotiacumicin B]: the MIC in test [1] (setting [13]) is 6.2 µg/mL (≈ 5.62 µM); in test [2] (setting [14]), above 200 µg/mL; in test [3] (setting [15]), 6.2 µg/mL (≈ 5.62 µM); in test [4] (setting [16]) it was 6.2 µg/mL (≈ 5.62 µM); in test [5] (setting [17]) it was 6.2 µg/mL (≈ 5.62 µM); in [10], above 128 µg/mL. Moreover, the MIC was above 128 µg/mL in test [11]; 0.06 µg/mL (≈ 0.0544 µM) in test [6] (setting [18]); 0.06 µg/mL (≈ 0.0544 µM) in test [7] (setting [19]); 0.06 µg/mL (≈ 0.0544 µM) in [8] (setting [20]); 0.03 µg/mL (≈ 0.0272 µM) in [9] (setting [21]). Besides, the “potency among compounds of this invention” value in test [12] is listed as “the most potent of the compounds of this invention”. Moreover, in [12], the “potency compared with tiacumicin B” value was “quite comparable to tiacumicin B”.
As to `CCc1c(Br)c(O)c(Cl)c(O)c1C(=O)O[C@H]1[C@H](O)[C@H](OC)[C@H](OC/C2=C\C=C\C[C@H](O)/C(C)=C/[C@H](CC)[C@@H](O[C@@H]3OC(C)(C)[C@@H](OC(=O)C(C)C)[C@H](O)[C@@H]3O)/C(C)=C/C(C)=C/C[C@@H](C(C)=O)OC2=O)O[C@@H]1C` [Ex. 4, 6'"-dechloro-6'"-bromo-18-ketotiacumicin B], the MIC was 50 µg/mL (≈ 45.4 µM) in test [1] (setting [13]); above 200 µg/mL in test [2] (setting [14]); 50 µg/mL (≈ 45.4 µM) in [3] (setting [15]); 100 µg/mL (≈ 90.9 µM) in test [4] (setting [16]); 50 µg/mL (≈ 45.4 µM) in test [5] (setting [17]); above 128 µg/mL in [10]. Further, the MIC is above 128 µg/mL in test [11]; 1 µg/mL (≈ 0.909 µM) in test [6] (setting [18]); 0.25 µg/mL (≈ 0.227 µM) in test [7] (setting [19]); 0.25 µg/mL (≈ 0.227 µM) in test [8] (setting [20]); 0.015 µg/mL (≈ 0.0136 µM) in test [9] (setting [21]).
